From patent US20190315711A1 (eXIthera Pharmaceuticals, Inc., priority 2016, published 2019)
pIC50: −log10 of the molar value.

Target: human Factor XIa (Homo sapiens, UniProt P03951)
Experiment: Factor XIa enzyme inhibition assay (dose response, fluorogenic AMC substrate)
Type: biochemical
Parameters: Enzyme: Factor XIa
Conditions: purified enzyme; substrate 50 μM, enzyme 0.25 nM; read-out: hFXIa IC50
Method: • Assay buffer: 20 mM Hepes, pH 7.4; 150 mM NaCl; 0.02% Tween 20 • Compounds: 10 mM stocks in DMSO • Substrate: 20 mM Glp-Pro-Arg-AMC, 25 mg/2.3 mL H2O (store at +4° C.) [Factor XIa, thrombin, and trypsin] • 20 mM Pro-Phe-Arg-AMC (Bachem I-1295), 25 mg/2.2 mL H2O or Boc-Leu-Gly-Arg-AMC (Bachem I-1105), 25 mg/2.07 mL H2O (store at +4° C.) [Factor Xa] • Enzyme: Factor XIa; 0.25 M in 50% glycerol (20 μg/mL) • Trypsin; 0.2 μM in 50% glycerol (4.8 μg/mL) • Thrombin; 0.2 μM in 50% glycerol (7.34 μg/mL) • Factor Xa; 0.2 μM in 50% glycerol (9.2 μg/mL)
• 1. Dilute the substrate to 100 μM in assay buffer (30 μL/6 mL). The enzyme is diluted to 0.5 nM just prior to use (12 L/6 mL for Factor XIa; 15 μL/6 mL for all of the rest.) • 2. Pipette 50 μL of substrate into each well of the 96 well (12×8) microtiter plate. (Column 1 is used as the 100% activity control and receives no compound, and Column 12 is the blank and receives no enzyme.) Add an additional 46 μL to column 2. • 3. Pipette 4 μL of each compound into the appropriate well in column 2 of the plate (unknowns assayed in triplicate, standard assayed in duplicate). The final compound concentration will be 1/50th of the stock. • 4. Serially two-fold dilute the compound by mixing the sample in column 2, removing 50 μL to the next well (column 3), mix and remove to column 4, etc. until column 11. After mixing column 11, remove 50 μL and discard. • 5. Pipette 50 μL of buffer into column 12. Initiate the reaction by adding 50 μL of enzyme solution to each well of columns 1-11 as rapidly as possible. • 6. Read the plate in a spectrophotometer (SpectraMax) at 30° C., wherein each well is measured every 60 s for 30 min. For Factor Xa assays, each well is measured every 1 min for a total of 60 min. • 7. For Factor XIa assays, the compounds are assayed, in duplicate, at 3 different starting concentrations, 20, 2, and 0.2 μM; 1:10, 1:100, and 1:1000 dilution of 10 mM stock or at 2, 0.2, and 0.02 μM; 1:100, 1:1000, and 1:10,000 dilution of 10 mM stock. Data for each concentration are combined for graphing and data fitting. • 8. Data can be used both for estimation of IC50 and for estimation of Kon.
Potential inhibitors of Factor XIa were evaluated using the following assay.
PyroGlu-Pro-Arg-7-methylaminocourin (AMC), available from CPC Scientific, Inc., is based on the substrate pyro-Glu-Pro-Arg-pNA (S-2366), available from Diapharma Group, Inc. (Columbus, Ohio), wherein the p-nitroanaline group is replaced with 7-methylaminocoumarin (AMC).
The final concentration of the substrate in the assay was 50 μM, and the final concentration of the enzyme was 0.25 nM. Inhibitors were tested by serial dilution over an appropriate range to yield a dose response curve for determination of the inhibitors' IC50 value. The assay mixture was read every minute for 30 minutes in order to generate progress curves. The plates were read in a Spectramax m5 Multimode Plate Reader (Molecular Devices LLC, Sunnyvale, Calif.). Dose response curves were fit to Equation 1 below in which A is the maximum inhibition, B is the minimum inhibition, C is the IC50, and D is the Hill coefficient.
Y=[(A−B)/(1+(X/C)^D)]+B (Equation 1)

human Factor XIa, sequence (P03951 388-625 limits assumed): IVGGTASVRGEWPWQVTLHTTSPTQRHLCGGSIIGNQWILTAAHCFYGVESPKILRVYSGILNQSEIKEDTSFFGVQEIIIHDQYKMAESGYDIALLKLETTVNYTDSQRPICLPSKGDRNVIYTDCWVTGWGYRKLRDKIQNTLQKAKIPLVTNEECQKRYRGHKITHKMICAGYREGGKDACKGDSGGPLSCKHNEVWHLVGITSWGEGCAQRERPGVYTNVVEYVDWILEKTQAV
human Factor XIa, sequence (P03951 19-387 partner limits assumed): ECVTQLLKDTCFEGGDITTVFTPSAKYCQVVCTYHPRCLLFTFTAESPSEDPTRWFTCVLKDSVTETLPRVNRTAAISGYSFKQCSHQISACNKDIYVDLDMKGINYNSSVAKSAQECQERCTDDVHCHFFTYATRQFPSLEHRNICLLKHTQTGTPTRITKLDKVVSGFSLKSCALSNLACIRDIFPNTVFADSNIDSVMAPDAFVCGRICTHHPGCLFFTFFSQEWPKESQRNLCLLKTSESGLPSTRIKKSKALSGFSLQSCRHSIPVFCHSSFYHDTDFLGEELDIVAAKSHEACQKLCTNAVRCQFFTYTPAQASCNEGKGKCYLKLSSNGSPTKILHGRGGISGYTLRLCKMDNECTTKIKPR

Compound	pIC50
CC[C@@H](NC(=O)N1C(=O)[C@H](Cc2ccnc(N)c2)[C@H]1C(=O)N(C)c1cc(C)nc(C)c1)c1cccc(C)c1 [Compound 129]	7.00 to 8.00
CC[C@@H](NC(=O)N1C(=O)[C@H](Cc2ccnc(N)c2)[C@H]1C(=O)N(C)c1ccncc1)c1cccc(C(F)(F)F)c1 [Compound 105]	7.00 to 8.00
COc1cccc(N(C)C(=O)[C@@H]2[C@@H](Cc3ccnc(N)c3)C(=O)N2C(=O)N[C@@H](C2CCCCC2)C(F)(F)F)c1 [Example 12]	7.00 to 8.00
CN(C(=O)[C@@H]1[C@@H](Cc2ccnc(N)c2)C(=O)N1C(=O)N[C@@H](C1CCCCC1)C1CC1)c1ncccn1 [Compound 53]	> 8.00
CC[C@@H](NC(=O)N1C(=O)[C@H](Cc2ccncc2)[C@H]1C(=O)N(C)c1ccncc1)C1CCCCC1 [Compound 65]	6.00 to 7.00
CCNC(=O)[C@@H]1[C@@H](Cc2ccnc(N)c2)C(=O)N1C(=O)N[C@@H](c1ccccc1)C(F)(F)F [Compound 2]	7.00 to 8.00
CN(C(=O)[C@@H]1[C@@H](Cc2ccnc(N)c2)C(=O)N1C(N)=O)c1ccncc1 [Compound 72]	7.00 to 8.00
Nc1cc(C[C@H]2C(=O)N(C(=O)N[C@@H](C3CCCCC3)C(F)(F)F)[C@@H]2C(=O)N2CCCc3ccccc32)ccn1 [Compound 76]	7.00 to 8.00
CN(C(=O)[C@@H]1[C@@H](Cc2ccnc(N)c2)C(=O)N1C(=O)N[C@@H](c1cccnc1)C1CC1)c1ccccc1 [Compound 58]	7.00 to 8.00
CC[C@@H](NC(=O)N1C(=O)[C@H](Cc2cc(N)ncc2C)[C@H]1C(=O)N(C)c1ccccc1)C1CCCCC1 [Compound 88]	< 6.00
CC[C@@H](NC(=O)N1C(=O)[C@H](Cc2ccnc(N)c2)[C@H]1C(=O)N(C)c1ccncc1)c1cccc(OC(F)(F)F)c1 [Compound 106]	7.00 to 8.00
CC[C@@H](NC(=O)N1C(=O)[C@H](Cc2ccnc(N)c2)[C@H]1C(=O)N(C)c1ccncc1)c1cccc(F)c1F [Compound 130]	7.00 to 8.00
CC[C@@H](NC(=O)N1C(=O)[C@H](Cc2ccnc(N)c2)[C@H]1C(=O)N(C)c1ccncc1)c1cc(F)ccc1F [Compound 110]	> 8.00
CN(C(=O)[C@@H]1[C@@H](Cc2ccnc(N)c2)C(=O)N1C(=O)N[C@@H](C1CCCCC1)C(F)(F)F)c1cnccn1 [Compound 30]	> 8.00
CC[C@@H](NC(=O)N1C(=O)[C@H](Cc2ccnc(N)c2)[C@H]1C(=O)N(C)c1ccccc1)c1ccc(F)c(F)c1 [Compound 48]	6.00 to 7.00
Nc1cc(C[C@H]2C(=O)N(C(=O)N[C@@H](C3CCCCC3)C(F)(F)F)[C@@H]2C(=O)Nc2ccc(Cl)cc2)ccn1 [Example 9]	6.00 to 7.00
CC[C@@H](NC(=O)N1C(=O)[C@H](Cc2cc(C)nc(N)c2)[C@H]1C(=O)N(C)c1ccccc1)c1ccc(C)nc1 [Compound 132]	7.00 to 8.00
C[C@@H](NC(=O)N1C(=O)[C@H](Cc2ccnc(N)c2)[C@H]1C(=O)N(C)c1ccccc1)c1cccnc1 [Compound 60]	7.00 to 8.00
CCC[C@@H](NC(=O)N1C(=O)[C@H](Cc2ccnc(N)c2)[C@H]1C(=O)N(C)c1ccncc1)c1cccnc1 [Compound 73]	> 8.00
CN(C(=O)[C@@H]1[C@@H](Cc2ccnc(N)c2)C(=O)N1C(=O)NC(C(F)(F)F)C(F)(F)F)c1ccccc1 [Compound 71]	7.00 to 8.00
CC[C@@H](NC(=O)N1C(=O)[C@H](Cc2ccnc(N)c2)[C@H]1C(=O)N(C)c1ccncc1)c1ccc(F)c(F)c1 [Compound 93]	7.00 to 8.00
CC[C@@H](NC(=O)N1C(=O)[C@H](Cc2ccnc(NC)c2)[C@H]1C(=O)N(C)c1ccncc1)c1cccc(Cl)c1 [Compound 109]	> 8.00
CCN(C(=O)[C@@H]1[C@@H](Cc2ccnc(N)c2)C(=O)N1C(=O)N[C@@H](C1CCCCC1)C(F)(F)F)c1ccnc(C)c1 [Compound 34]	> 8.00
CN(C(=O)[C@@H]1[C@@H](Cc2ccncc2)C(=O)N1C(=O)N[C@@H](C1CCCCC1)C1CC1)c1ccccc1 [Compound 63]	6.00 to 7.00
CC[C@@H](NC(=O)N1C(=O)[C@H](Cc2cc(C)nc(N)c2)[C@H]1C(=O)N(C)c1ccncc1)c1ccccc1 [Compound 122]	> 8.00
CN(C(=O)[C@@H]1[C@@H](Cc2ccnc(N)c2)C(=O)N1C(=O)NCc1cccc(Cl)c1)c1ccccc1 [Compound 137]	7.00 to 8.00

Continued, values first:

pIC50	Compound
> 8.00	CN(C(=O)[C@@H]1[C@@H](Cc2ccnc(N)c2)C(=O)N1C(=O)N[C@H](C1CCCCC1)C1CC1)c1ccccc1 [Compound 45]
6.00 to 7.00	CC[C@@H](NC(=O)N1C(=O)[C@H](Cc2ccnc(N(C)C)c2)[C@H]1C(=O)N(C)c1ccncc1)c1ccccc1Cl [Compound 139]
> 8.00	CC[C@@H](NC(=O)N1C(=O)[C@H](Cc2ccnc(N)c2)[C@H]1C(=O)N(C)c1ccnc(C)c1)c1cccc(C)c1 [Compound 128]
> 8.00	CC[C@@H](NC(=O)N1C(=O)[C@H](Cc2cc(C)nc(N)c2)[C@H]1C(=O)N(C)c1ccncc1)C1CCCCC1 [Compound 114]
> 8.00	Cc1cccc(C(NC(=O)N2C(=O)[C@H](Cc3ccnc(N)c3)[C@H]2C(=O)N(C)c2ccncc2)c2cccc(C)c2)c1 [Compound 101]
7.00 to 8.00	CCC[C@H](NC(=O)N1C(=O)[C@H](Cc2ccnc(N)c2)[C@H]1C(=O)N(C)c1ccccc1)c1cccnc1 [Compound 69]
6.00 to 7.00	CC[C@@H](NC(=O)N1C(=O)[C@H](Cc2ccncc2)[C@H]1C(=O)N(C)c1ccccc1)c1cccnc1 [Compound 66]
> 8.00	CC[C@@H](NC(=O)N1C(=O)[C@H](Cc2ccnc(N)c2)[C@H]1C(=O)N(C)c1ccncc1)c1cccc(F)c1 [Compound 103]
> 8.00	Cc1cc(N(C)C(=O)[C@@H]2[C@@H](Cc3ccnc(N)c3)C(=O)N2C(=O)N[C@@H](C2CCCCC2)C2CC2)ccn1 [Compound 56]
7.00 to 8.00	Nc1cc(C[C@H]2C(=O)N(C(=O)N[C@@H](C3CCCCC3)C(F)(F)F)[C@@H]2C(=O)NC2CC2)ccn1 [Compound 1]
> 8.00	CC[C@@H](NC(=O)N1C(=O)[C@H](Cc2ccnc(N)c2)[C@H]1C(=O)N(C)c1ccncc1)c1ccccc1F [Compound 108]
6.00 to 7.00	CC[C@@H](NC(=O)N1C(=O)[C@H](Cc2ccncc2)[C@H]1C(=O)N(C)c1ccccc1)C1CCCCC1 [Compound 62]
> 8.00	CC[C@@H](NC(=O)N1C(=O)[C@H](Cc2ccnc(N)c2)[C@H]1C(=O)N(C)c1ccccc1)c1ccc(C)nc1 [Compound 134]
6.00 to 7.00	CC[C@@H](NC(=O)N1C(=O)[C@H](Cc2ccnc(N(C)C)c2)[C@H]1C(=O)N(C)c1ccncc1)c1cccc(Cl)c1 [Compound 140]
6.00 to 7.00	CC[C@@H](NC(=O)N1C(=O)[C@H](Cc2ccnc(N)c2)[C@H]1C(=O)N(C)c1ccccc1)c1ccncc1 [Compound 43]
6.00 to 7.00	CC[C@@H](NC(=O)N1C(=O)[C@H](Cc2ccnc(N)c2)[C@H]1C(=O)N(C)c1ccccc1)c1ccc(OC(F)(F)F)cc1 [Compound 47]
> 8.00	CN(C(=O)[C@@H]1[C@@H](Cc2ccnc(N)c2)C(=O)N1C(=O)NCc1cccc(Cl)c1)c1ccncc1 [Compound 138]
> 8.00	CCN(C(=O)[C@@H]1[C@@H](Cc2ccnc(N)c2)C(=O)N1C(=O)N[C@@H](C1CCCCC1)C(F)(F)F)c1ccncc1 [Compound 33]
6.00 to 7.00	CC[C@@H](NC(=O)N1C(=O)[C@H](Cc2cc(N)ncc2F)[C@H]1C(=O)N(C)c1ccncc1)c1cccc(Cl)c1 [Compound 131]
7.00 to 8.00	CCC[C@@H](NC(=O)N1C(=O)[C@H](Cc2ccnc(N)c2)[C@H]1C(=O)N(C)c1ccccc1)c1cccnc1 [Compound 68]
